Data reported in ChEMBL document CHEMBL1201862, “PubChem BioAssay data set” (2004).
One block for each compound: values may come before it. The source made the active and inactive calls.

Key:
[1] = target: COUP transcription factor 2 (Homo sapiens, UniProt P24468); assay: Luminescence-based cell-based high throughput dose response assay to identify inhibitors of COUP-TFII (NR2F2).; type: functional;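 further: HEK293 cells transiently cotransfected with COUP-TFII expression vector and reporter; luciferase reporter luminescence driven by COUP-TFII from the pX2-168 reporter plasmid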
COUP transcription factor 2, sequence (P24468 whole entry): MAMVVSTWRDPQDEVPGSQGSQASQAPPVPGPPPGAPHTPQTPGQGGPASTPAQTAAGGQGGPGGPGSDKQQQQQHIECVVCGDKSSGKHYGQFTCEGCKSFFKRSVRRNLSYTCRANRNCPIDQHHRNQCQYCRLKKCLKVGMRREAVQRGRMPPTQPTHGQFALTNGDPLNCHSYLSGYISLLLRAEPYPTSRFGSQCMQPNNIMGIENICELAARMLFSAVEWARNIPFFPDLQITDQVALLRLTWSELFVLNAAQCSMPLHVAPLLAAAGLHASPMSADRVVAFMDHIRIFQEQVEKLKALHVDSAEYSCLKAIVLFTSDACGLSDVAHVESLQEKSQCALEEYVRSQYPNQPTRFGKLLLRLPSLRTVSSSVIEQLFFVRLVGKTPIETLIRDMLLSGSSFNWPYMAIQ

[2] = target: Metabotropic glutamate receptor 3 (Rattus norvegicus, UniProt P31422); assay: mGlu3 negative allosteric modulator potency, dose response, HEK/GIRK cells, thallium flux, rat (AID 651839); type: functional
[3] = target: T1, Sentrin-specific protease 8 (Homo sapiens, UniProt Q96LD8); type: functional
T1 sequence (Q96LD8 whole entry): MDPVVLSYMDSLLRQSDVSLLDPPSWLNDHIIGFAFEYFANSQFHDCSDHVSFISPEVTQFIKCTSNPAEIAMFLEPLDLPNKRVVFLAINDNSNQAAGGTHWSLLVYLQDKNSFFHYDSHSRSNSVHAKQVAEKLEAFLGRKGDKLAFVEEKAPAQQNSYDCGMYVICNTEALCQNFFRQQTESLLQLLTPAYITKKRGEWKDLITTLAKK

[4] = target: T1, Sentrin-specific protease 8; type: functional; remark: listed apart in the source
[5] = target: T2, Carboxy-terminal domain RNA polymerase II polypeptide A small phosphatase 1 (Homo sapiens, UniProt Q9GZU7); assay: inhibitors of CTDSP1, concentration-response testing, biochemical assay, absorbance-based, actives from ultra-high-throughput screening (AID 540297); type: functional
T2 sequence (Q9GZU7 whole entry): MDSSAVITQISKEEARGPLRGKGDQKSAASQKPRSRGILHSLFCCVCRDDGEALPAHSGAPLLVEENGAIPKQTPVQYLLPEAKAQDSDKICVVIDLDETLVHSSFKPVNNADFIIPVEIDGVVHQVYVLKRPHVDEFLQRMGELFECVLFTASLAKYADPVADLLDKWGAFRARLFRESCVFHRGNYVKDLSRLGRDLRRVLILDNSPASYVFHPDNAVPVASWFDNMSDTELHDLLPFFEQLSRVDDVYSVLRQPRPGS

[6] = target: Tyrosine-protein phosphatase non-receptor type 11 (Homo sapiens, UniProt Q06124); assay: SHP2 phosphatase inhibition, dose response, selectivity assay for STEP inhibitor project, biochemical (AID 602367); type: functional; conditions: read-out: IC50_Mean
[7] = target: T3, Tyrosine-protein phosphatase non-receptor type 22 (Homo sapiens, UniProt Q9Y2R2); assay: PTPN22 phosphatase inhibition, dose response, selectivity assay for STEP inhibitor project, biochemical (AID 624241); type: functional
T3 sequence (Q9Y2R2 whole entry): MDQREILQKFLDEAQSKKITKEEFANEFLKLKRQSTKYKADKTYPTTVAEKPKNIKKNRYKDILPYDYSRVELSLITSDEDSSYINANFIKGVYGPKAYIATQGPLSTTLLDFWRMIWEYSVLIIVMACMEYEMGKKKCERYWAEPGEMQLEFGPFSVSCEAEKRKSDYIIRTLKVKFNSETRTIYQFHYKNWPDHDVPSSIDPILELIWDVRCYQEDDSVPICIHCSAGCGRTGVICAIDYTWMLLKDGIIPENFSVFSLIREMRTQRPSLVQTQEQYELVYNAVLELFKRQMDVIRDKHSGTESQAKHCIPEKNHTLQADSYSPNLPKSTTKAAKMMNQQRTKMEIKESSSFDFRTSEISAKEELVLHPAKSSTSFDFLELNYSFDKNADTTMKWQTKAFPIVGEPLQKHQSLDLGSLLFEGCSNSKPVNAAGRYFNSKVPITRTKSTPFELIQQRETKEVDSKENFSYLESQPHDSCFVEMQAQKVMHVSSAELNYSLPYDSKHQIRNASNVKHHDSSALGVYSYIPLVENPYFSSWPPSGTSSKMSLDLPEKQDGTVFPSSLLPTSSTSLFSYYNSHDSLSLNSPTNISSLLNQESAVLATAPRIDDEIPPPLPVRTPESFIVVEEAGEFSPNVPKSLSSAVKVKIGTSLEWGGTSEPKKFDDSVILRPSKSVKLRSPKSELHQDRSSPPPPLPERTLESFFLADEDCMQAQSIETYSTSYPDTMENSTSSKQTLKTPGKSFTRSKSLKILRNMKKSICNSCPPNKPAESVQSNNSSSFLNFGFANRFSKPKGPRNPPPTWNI

[8] = target: 72 kDa type IV collagenase (Homo sapiens, UniProt P08253); assay: Dose Response validation of uHTS RPN11 inhibitor hits using a MMP-2 Fluorescence assay.; type: functional
72 kDa type IV collagenase, sequence (P08253 whole entry): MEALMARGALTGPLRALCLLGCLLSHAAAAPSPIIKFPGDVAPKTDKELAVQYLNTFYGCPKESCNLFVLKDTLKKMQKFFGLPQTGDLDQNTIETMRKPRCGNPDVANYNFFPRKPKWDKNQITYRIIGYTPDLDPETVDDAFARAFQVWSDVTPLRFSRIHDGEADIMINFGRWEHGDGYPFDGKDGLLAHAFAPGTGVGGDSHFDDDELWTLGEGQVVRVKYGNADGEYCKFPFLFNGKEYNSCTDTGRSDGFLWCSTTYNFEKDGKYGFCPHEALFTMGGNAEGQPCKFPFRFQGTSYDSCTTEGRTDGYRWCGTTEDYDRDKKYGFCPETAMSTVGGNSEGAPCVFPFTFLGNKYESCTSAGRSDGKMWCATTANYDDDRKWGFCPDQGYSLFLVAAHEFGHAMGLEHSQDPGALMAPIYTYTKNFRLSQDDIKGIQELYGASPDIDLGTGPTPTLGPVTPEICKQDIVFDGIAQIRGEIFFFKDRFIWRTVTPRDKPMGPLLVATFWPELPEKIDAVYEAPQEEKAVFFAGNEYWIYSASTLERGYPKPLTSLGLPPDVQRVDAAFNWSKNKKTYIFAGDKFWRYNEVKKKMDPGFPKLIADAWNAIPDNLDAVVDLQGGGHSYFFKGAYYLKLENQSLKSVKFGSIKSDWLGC

[9] = target: Dual specificity protein phosphatase 3 (Homo sapiens, UniProt P51452); assay: VHR phosphatase inhibition, dose response, selectivity assay for STEP inhibitor project, biochemical (AID 602374); type: functional; conditions: read-out: IC50_Mean
Dual specificity protein phosphatase 3, sequence (P51452 whole entry): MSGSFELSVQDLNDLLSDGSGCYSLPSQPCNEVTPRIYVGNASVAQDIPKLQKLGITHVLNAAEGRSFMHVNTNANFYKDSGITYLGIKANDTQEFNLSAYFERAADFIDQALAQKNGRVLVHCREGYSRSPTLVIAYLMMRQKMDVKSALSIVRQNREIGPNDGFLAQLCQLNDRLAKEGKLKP

[10] = target: 26S proteasome non-ATPase regulatory subunit 14 (Homo sapiens, UniProt O00487); assay: inhibition of proteasome subunit RPN11 – biochemical, fluorescence polarization, uHTS hits, confirmation (AID 602368); type: functional
26S proteasome non-ATPase regulatory subunit 14, sequence (O00487 whole entry): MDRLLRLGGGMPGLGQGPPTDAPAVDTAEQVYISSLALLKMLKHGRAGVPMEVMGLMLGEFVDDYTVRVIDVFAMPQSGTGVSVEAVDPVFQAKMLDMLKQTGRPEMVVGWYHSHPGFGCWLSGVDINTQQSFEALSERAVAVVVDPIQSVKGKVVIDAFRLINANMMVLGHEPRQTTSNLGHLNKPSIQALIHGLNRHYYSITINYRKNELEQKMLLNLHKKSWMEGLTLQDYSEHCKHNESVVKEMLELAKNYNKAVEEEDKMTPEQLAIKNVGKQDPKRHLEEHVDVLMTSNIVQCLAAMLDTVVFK

[11] = target: Tyrosine-protein phosphatase non-receptor type 5 (Homo sapiens, UniProt P54829); assay: STEP phosphatase inhibitors, confirmation, biochemical, fluorescence intensity, uHTS hits (AID 602372); type: functional; conditions: read-out: IC50_Mean
Tyrosine-protein phosphatase non-receptor type 5, sequence (P54829 whole entry): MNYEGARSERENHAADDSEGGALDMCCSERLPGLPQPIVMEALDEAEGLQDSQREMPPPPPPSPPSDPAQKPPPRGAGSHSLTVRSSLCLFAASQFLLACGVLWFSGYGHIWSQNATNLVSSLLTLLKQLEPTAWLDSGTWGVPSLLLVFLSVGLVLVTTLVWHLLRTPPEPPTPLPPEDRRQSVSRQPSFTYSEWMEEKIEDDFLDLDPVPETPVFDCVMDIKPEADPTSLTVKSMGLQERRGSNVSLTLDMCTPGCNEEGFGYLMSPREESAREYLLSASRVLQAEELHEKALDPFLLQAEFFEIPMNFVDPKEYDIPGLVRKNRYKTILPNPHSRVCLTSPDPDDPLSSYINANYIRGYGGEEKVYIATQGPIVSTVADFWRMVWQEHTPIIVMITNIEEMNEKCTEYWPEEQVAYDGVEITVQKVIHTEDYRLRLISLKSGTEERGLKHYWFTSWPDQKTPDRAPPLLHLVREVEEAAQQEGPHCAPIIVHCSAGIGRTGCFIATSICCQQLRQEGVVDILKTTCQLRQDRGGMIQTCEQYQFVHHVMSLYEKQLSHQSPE

Prothrombin = Prothrombin (Bos taurus, UniProt P00735); assay: thrombin inhibition, dose response, biochemical, fluorescence polarization, uHTS hits (AID 602369); type: functional
[12] = target: T4, Corticotropin-releasing factor receptor 2/Corticotropin-releasing factor-binding protein (Homo sapiens, UniProt P24387+Q13324); assay: activators of CRF receptor 2 with binding protein – uHTS hits, confirmation (AID 602473); type: functional; conditions: read-out: EC50_Mean
T4 sequence (Q13324 whole entry): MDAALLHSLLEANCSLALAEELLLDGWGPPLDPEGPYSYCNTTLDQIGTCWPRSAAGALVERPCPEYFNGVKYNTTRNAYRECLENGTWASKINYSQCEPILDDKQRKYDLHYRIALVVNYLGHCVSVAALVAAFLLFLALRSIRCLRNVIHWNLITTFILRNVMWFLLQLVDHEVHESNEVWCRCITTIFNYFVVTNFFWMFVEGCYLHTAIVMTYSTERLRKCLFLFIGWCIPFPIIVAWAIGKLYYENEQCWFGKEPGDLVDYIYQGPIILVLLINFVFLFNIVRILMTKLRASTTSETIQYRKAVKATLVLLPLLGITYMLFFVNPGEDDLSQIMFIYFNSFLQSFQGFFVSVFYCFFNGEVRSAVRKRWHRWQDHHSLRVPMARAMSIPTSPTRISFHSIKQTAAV
T4 sequence (P24387 whole entry): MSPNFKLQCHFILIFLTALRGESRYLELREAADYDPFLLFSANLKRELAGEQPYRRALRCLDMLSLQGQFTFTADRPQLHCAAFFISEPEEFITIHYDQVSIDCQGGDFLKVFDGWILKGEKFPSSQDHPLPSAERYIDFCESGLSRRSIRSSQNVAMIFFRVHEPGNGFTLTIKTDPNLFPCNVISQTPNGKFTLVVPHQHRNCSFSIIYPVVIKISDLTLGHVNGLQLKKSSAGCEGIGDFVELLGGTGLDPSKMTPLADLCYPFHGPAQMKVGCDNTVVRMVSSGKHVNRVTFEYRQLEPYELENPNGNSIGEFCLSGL

Mu-type opioid receptor = Mu-type opioid receptor (Homo sapiens, UniProt P35372); type: functional, cell-based;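 further: U2OS cells with beta-arrestin recruitment to OPRM1 by beta-gal complementation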
Mu-type opioid receptor, sequence (P35372 whole entry): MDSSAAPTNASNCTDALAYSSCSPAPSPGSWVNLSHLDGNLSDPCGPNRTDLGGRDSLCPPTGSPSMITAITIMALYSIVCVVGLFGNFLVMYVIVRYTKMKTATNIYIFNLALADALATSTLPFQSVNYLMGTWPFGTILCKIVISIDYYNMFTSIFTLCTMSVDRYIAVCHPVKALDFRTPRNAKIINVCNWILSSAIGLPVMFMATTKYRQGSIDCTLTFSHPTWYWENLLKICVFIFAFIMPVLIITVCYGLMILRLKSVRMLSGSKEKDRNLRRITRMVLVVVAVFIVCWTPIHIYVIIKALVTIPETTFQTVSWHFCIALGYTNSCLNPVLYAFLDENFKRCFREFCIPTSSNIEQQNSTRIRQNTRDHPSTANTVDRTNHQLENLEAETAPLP

[13] = target: T4, Corticotropin-releasing factor receptor 2/Corticotropin-releasing factor-binding protein; assay: Dose Response confirmation of uHTS hits for small molecule antagonists of the CRF-binding protein and CRF-R2 receptor complex.; type: functional; conditions: read-out: IC50_Mean
[14] = target: 5-hydroxytryptamine receptor 2A (Mus musculus, UniProt P35363); type: functional, cell-based;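 further: CHO-K1 cells with tagged receptor and beta-arrestin; agonist potency measured as compound-induced activation of the receptor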
5-hydroxytryptamine receptor 2A, sequence (P35363 whole entry, the tested form may be a part): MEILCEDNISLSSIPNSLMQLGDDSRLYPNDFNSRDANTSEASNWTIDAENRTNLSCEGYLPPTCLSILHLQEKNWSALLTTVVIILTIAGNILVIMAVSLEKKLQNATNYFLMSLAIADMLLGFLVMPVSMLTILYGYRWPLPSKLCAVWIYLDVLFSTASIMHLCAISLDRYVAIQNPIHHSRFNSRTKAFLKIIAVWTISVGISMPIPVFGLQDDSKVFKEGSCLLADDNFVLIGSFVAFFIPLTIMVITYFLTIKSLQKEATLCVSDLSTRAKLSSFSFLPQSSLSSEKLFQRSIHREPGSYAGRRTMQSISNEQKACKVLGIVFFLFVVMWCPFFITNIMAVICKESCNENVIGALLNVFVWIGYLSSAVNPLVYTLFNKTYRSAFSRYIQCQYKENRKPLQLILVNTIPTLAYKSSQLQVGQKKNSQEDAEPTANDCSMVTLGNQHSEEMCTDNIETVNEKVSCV

[15] = target: T5, Oxysterols receptor LXR-beta (Homo sapiens, UniProt P55055); type: functional, cell-based;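 further: Cell-based luminescence dose-response assay of agonist activity at LXR, run as a confirmatory counterscreen to a daf-12 agonist screen; HEK293 cells with Gal4-LXR fusion and GAL4-driven luciferase reporter; agonist potency from rising luciferase signal of a Gal4-LXR reporter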
T5 sequence (P55055 whole entry): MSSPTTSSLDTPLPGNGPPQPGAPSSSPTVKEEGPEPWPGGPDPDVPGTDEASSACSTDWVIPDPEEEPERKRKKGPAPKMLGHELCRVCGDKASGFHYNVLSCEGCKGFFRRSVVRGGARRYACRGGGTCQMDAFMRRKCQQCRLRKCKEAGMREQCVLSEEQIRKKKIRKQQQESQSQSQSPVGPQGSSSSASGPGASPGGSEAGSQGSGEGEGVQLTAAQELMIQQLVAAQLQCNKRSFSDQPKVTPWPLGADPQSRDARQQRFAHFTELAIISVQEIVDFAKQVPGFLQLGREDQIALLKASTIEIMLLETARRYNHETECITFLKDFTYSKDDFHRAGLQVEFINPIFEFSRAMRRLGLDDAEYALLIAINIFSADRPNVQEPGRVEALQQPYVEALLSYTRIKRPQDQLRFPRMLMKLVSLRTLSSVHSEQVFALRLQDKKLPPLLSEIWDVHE

[16] = target: SWI/SNF-related matrix-associated actin-dependent regulator of chromatin subfamily A member 2 (Homo sapiens, UniProt P51531); assay: Luminescence-based cell-based high throughput dose response assay to identify activators of the function of SWI/SNF related, matrix associated, actin dependent regulator of chromatin, subfamily a, member 2 (SMARCA2, BRM).; type: functional
SWI/SNF-related matrix-associated actin-dependent regulator of chromatin subfamily A member 2, sequence (P51531 whole entry): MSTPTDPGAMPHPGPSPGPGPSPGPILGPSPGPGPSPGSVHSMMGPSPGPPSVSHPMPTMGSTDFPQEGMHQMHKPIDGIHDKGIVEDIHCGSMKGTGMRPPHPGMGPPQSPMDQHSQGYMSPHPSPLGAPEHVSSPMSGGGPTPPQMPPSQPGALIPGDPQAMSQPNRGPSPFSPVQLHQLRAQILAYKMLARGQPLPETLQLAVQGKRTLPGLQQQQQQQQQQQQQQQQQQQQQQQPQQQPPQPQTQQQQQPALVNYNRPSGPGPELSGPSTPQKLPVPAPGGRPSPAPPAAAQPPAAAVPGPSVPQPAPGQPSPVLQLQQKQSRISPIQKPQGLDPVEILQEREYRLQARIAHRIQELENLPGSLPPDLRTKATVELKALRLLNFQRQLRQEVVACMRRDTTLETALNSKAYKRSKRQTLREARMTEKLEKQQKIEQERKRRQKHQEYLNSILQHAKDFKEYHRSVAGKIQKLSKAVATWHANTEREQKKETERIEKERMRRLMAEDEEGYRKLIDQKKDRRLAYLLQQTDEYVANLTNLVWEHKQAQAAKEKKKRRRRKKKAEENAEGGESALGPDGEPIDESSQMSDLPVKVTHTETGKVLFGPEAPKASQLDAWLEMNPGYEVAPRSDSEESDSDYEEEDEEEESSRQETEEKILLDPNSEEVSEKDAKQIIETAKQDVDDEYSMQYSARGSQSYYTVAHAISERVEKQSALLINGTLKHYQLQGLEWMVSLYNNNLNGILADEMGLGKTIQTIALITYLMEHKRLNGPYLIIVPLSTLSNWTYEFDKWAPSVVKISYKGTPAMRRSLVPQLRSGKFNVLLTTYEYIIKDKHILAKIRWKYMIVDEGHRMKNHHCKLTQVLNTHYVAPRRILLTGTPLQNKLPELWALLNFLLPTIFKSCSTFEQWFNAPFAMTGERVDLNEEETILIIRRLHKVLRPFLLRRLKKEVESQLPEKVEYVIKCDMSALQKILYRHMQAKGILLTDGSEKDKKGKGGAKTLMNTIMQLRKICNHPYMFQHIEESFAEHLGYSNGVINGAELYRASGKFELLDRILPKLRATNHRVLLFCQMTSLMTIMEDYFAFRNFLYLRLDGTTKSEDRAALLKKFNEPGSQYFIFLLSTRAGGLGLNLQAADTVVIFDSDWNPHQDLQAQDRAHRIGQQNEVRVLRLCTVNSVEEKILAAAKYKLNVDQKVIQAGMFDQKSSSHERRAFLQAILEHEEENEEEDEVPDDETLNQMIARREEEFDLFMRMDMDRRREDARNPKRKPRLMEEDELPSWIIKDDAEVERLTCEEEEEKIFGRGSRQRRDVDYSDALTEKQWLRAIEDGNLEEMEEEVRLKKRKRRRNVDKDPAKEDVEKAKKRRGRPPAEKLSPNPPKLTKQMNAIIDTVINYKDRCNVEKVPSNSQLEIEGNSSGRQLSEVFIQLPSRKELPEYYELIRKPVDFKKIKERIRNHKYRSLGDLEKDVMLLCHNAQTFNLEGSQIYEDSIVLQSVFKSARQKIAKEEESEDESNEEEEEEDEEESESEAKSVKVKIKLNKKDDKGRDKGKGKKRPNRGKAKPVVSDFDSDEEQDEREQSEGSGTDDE

[17] = Counterscreen for activators of the function of SWI/SNF related, matrix associated, actin dependent regulator of chromatin, subfamily a, member 2 (SMARCA2, BRM): Luminescence-based cell-based high throughput dose response assay to identify non-selective compounds using the VP16 reporter assay.; type: functional

IC50 [1]: 13.6 µM (inactive)
SMILES: CCOC(=O)N1CCC(Nc2ncnc3c2cnn3-c2ccc(C)cc2C)CC1

IC50 [2]: 9.35 µM (active)
SMILES: O=C(c1ccc2cc(-c3ccccc3OCc3ccccc3)ccc2c1)N1CCCC(CO)C1 (centres undefined)

SMILES: COc1ccc2c(c1)C(=O)N(c1ccccc1OC)C(=O)C2
IC50 [3]: > 100 µM (inactive)
IC50 [4]: 15.4 µM (active)

IC50 [5]: 7.91 µM (active)
IC50 [6]: 5.05 µM (active)
IC50 [7]: 30.2 µM (inactive)
IC50 [8]: > 100 µM (inactive)
IC50 [9]: 2.84 µM (active)
IC50 [10]: 22.7 µM (active)
IC50 [11]: 16.5 µM (active)
IC50 (Prothrombin): > 100 µM (inactive)
SMILES: O=C(N/N=C/c1cccnc1)c1ccc(NC(=O)c2cccc(Cl)c2)cc1

SMILES: CC(=O)N1CCC(N2CCCC(C(=O)c3cccc(Cl)c3)C2)CC1 (centres undefined)
EC50 [12]: > 53 µM (inactive)
EC50 (Mu-type opioid receptor): 92.5 µM (inactive)
IC50 [13]: > 47.1 µM (inactive)
EC50 [14]: 0.764 µM (active)

EC50 (Mu-type opioid receptor): 92.5 µM (inactive)
EC50 [14]: 18.4 µM (inactive)
SMILES: O=C(CNCc1cccs1)Nc1cc(S(=O)(=O)N2CCCC2)ccc1Cl

SMILES: CCCc1nc2c(C)cc(Br)cn2c1Cc1ccc(C)cc1
EC50 [15]: > 67.5 µM (inactive)
EC50 (cells): > 67.5 µM (inactive)

SMILES: COc1ccc(OCc2ccc(/C=N\NC(=O)c3sccc3C)o2)cc1
EC50 [16]: > 91.2 µM (inactive)
EC50 [17]: > 91.2 µM (inactive)

SMILES: Cc1cccc(CSc2ccc(-c3cccs3)nn2)c1
EC50 [16]: > 91.1 µM (inactive)
EC50 [17]: > 91.1 µM (inactive)
